Consider 25 compounds from ChEMBL document CHEMBL1201862, “PubChem BioAssay data set” (2004).

Among the test systems are DLD-1; DMS-114; HOP-18; KM-20L2; LXFL 529; M19-MEL; RXF 631; SNB-78; XF498.
Common to all, as to assay: DTP human tumour cell line panel, 48 h

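48-hour exposure; five concentrations; linearly interpolated endpoints. Here, GI50 denotes the concentration required for 50% inhibition of growth.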 Active and inactive are the calls of the source. No stated cut-off is given here; in the data, active = GI50 up to about 1.1 µM and inactive = higher.

`Sc1nnc(COc2ccc(Cl)cc2)o1`: the GI50 with DLD-1, in the assay with DMS-114, in the assay with HOP-18, in the assay with KM-20L2, in the assay with LXFL 529 and with M19-MEL was > 100 µM (inactive) in each case. Moreover, the GI50 in the assay with RXF 631 and with SNB-78 was > 100 µM (inactive) in each case.
As to `COc1cc(-c2cc(O)c3ccccc3n2)cc(OC)c1OC`, the GI50 with DLD-1, with DMS-114, in the assay with KM-20L2, in the assay with LXFL 529, with M19-MEL and in the assay with SNB-78 was > 75 µM (inactive) throughout.
In the case of `COC(=O)C1CCC2(CC1)NC(=O)NC2=O` (stereo not given), the GI50 with DLD-1, in the assay with DMS-114, in the assay on HOP-18, in the assay on KM-20L2, with LXFL 529 and in the assay with M19-MEL was > 100 µM (inactive) in each case. Besides, the GI50 in the assay with RXF 631, in the assay on SNB-78 and in the assay on XF498 was > 100 µM (inactive) each time.
Regarding `CCC(C)(C)NC1=C(NC(C)=O)C(=O)c2ccccc2C1=O`, the GI50 is 43.1 µM (inactive) in the assay on DLD-1; > 75 µM (inactive) in the assay on KM-20L2; 45.6 µM (inactive) in the assay on LXFL 529; 13.3 µM (inactive) in the assay on M19-MEL; 35.2 µM (inactive) with SNB-78; 14.4 µM (inactive) in the assay with XF498.
In the case of `CC(C)(C)N/N=C(\Cc1occc(=O)c1O)C(=O)Nc1ccc([N+](=O)[O-])cc1[N+](=O)[O-]`, the GI50 in the assay with DMS-114, in the assay on HOP-18, with KM-20L2, in the assay with LXFL 529, in the assay with M19-MEL and in the assay on RXF 631 was > 100 µM (inactive) each time. Also, the GI50 in the assay with SNB-78 and with XF498 was > 100 µM (inactive) in each case.
`CC1(C)OCC(C(O)C2OC(C)(C)OC2/C=N\O)O1` (stereo not given): the GI50 with DLD-1 was > 100 µM (inactive); in the assay on DMS-114, > 100 µM (inactive); in the assay on HOP-18, 37.5 µM (inactive); with KM-20L2 it was > 100 µM (inactive); in the assay with LXFL 529, > 100 µM (inactive); in the assay with M19-MEL, > 100 µM (inactive). Also, the GI50 with SNB-78 and in the assay with XF498 was > 100 µM (inactive) each time.
Turning to `CCCCCCCCSC(SCCCCCCCC)=C1C(=O)N(c2ccccc2)N=C1C`, the GI50 was 21.4 µM (inactive) in the assay with DLD-1; 28.4 µM (inactive) in the assay with DMS-114; 61.7 µM (inactive) with HOP-18; 55.7 µM (inactive) with KM-20L2; 43.4 µM (inactive) in the assay on LXFL 529; 37 µM (inactive) in the assay with M19-MEL. The GI50 in the assay on RXF 631 and with SNB-78 was > 100 µM (inactive) throughout.
As to `O=C1CCC(c2nc3cc(Cl)ccc3o2)C(=O)N1` (stereo not given), the GI50 with DLD-1, in the assay with DMS-114, in the assay on HOP-18, in the assay with KM-20L2, in the assay with LXFL 529 and with M19-MEL was > 100 µM (inactive) in each case. Also, the GI50 with RXF 631 and in the assay with SNB-78 was > 100 µM (inactive) each time.
For `CC1(C)C2C=CC1C(=O)CC2` (stereo not given), the GI50 in the assay on DLD-1, in the assay with HOP-18, in the assay with KM-20L2, in the assay with LXFL 529, in the assay with RXF 631 and in the assay on SNB-78 was > 100 µM (inactive) throughout. Moreover, the GI50 in the assay with XF498 was > 100 µM (inactive).
`COC(=O)/C=C\C1C(C(=O)OC)C2(C(=O)OC)CCC1(C(=O)OC)N2` (stereo not given): the GI50 in the assay with DLD-1 was 3.25 µM (inactive); with HOP-18 it was 15.1 µM (inactive); in the assay with KM-20L2, 31.9 µM (inactive); with LXFL 529, 6.75 µM (inactive); in the assay on M19-MEL, 14.7 µM (inactive); in the assay with RXF 631 it was 20.8 µM (inactive). Further, the GI50 is 10.2 µM (inactive) with SNB-78 and 19.1 µM (inactive) with XF498.
As to `N#Cc1cnsc1`, the GI50 in the assay with DLD-1, in the assay on DMS-114, in the assay with HOP-18, in the assay on KM-20L2, with LXFL 529 and in the assay with M19-MEL was > 100 µM (inactive) each time. Further, the GI50 with RXF 631, with SNB-78 and in the assay with XF498 was > 100 µM (inactive) throughout.
Regarding `COC(=O)/C(=C1\OC(=O)C(c2ccc(Cl)cc2)=C1O)c1ccc(Cl)cc1`, the GI50 was 29.4 µM (inactive) in the assay with DLD-1; 15.8 µM (inactive) with DMS-114; 21 µM (inactive) in the assay with HOP-18; 28.6 µM (inactive) in the assay with KM-20L2; 26.6 µM (inactive) in the assay on LXFL 529; 22.1 µM (inactive) with M19-MEL. Moreover, the GI50 in the assay on SNB-78 was 26.4 µM (inactive); in the assay with XF498, 16.9 µM (inactive).
In the case of `C[C@]12CCC(=O)C=C1CC[C@@H]1[C@@H]2[C@@H](O)C[C@@]2(C)[C@H]1CC[C@]2(O)C(=O)COC(=O)COCC(=O)O`, the GI50 is > 100 µM (inactive) with DLD-1; > 100 µM (inactive) in the assay on DMS-114; > 100 µM (inactive) in the assay on HOP-18; > 100 µM (inactive) in the assay on KM-20L2; > 100 µM (inactive) in the assay with M19-MEL; 20.9 µM (inactive) in the assay with SNB-78. For the same compound, in the assay on XF498, the GI50 is > 100 µM (inactive).
`O=C(O/N=C1\CCCC\C1=C/c1ccccc1)c1ccc([N+](=O)[O-])cc1`: the GI50 is 80 µM (inactive) in the assay on DLD-1; 61.9 µM (inactive) in the assay with DMS-114; > 100 µM (inactive) in the assay with HOP-18; > 100 µM (inactive) with KM-20L2; 54 µM (inactive) with LXFL 529; > 100 µM (inactive) with M19-MEL. Also, the GI50 in the assay with RXF 631 and in the assay on SNB-78 was > 100 µM (inactive) throughout.
In the case of `N#CNC(=N)NC(=O)/C=C/C=C/c1ccc(Cl)cc1`, the GI50 was > 100 µM (inactive) in the assay with DLD-1; 84.5 µM (inactive) with DMS-114; > 100 µM (inactive) with HOP-18; > 100 µM (inactive) with KM-20L2; 47.4 µM (inactive) with LXFL 529; > 100 µM (inactive) in the assay on M19-MEL. Besides, the GI50 in the assay with SNB-78 is 55.1 µM (inactive).
As for `CC1CCC(C(C)C)C(O[C@@H]2OC(=O)C[C@@H]2Sc2ccccc2)C1` (stereo not given in full), the GI50 with DLD-1 was 33.1 µM (inactive); in the assay with DMS-114, 19.5 µM (inactive); in the assay with KM-20L2 it was > 10 µM (inactive); in the assay with LXFL 529, 19.1 µM (inactive); in the assay with M19-MEL, 24 µM (inactive); in the assay with RXF 631, 21.2 µM (inactive). Moreover, in the assay on SNB-78, the GI50 is 25.3 µM (inactive).
With `CCCCCCCCCCCCCCC(O)C1CCC(C(O)CCC(O)CCCCCC(O)CC2=CC(C)OC2=O)O1` (stereo not given), the GI50 in the assay on DLD-1 was 2.31 µM (inactive); with DMS-114 it was < 0.01 µM (active); in the assay on KM-20L2, 3.4 µM (inactive); with LXFL 529 it was 2.11 µM (inactive); in the assay on M19-MEL, 2 µM (inactive); with RXF 631, 2.94 µM (inactive). The GI50 was 1.49 µM (inactive) in the assay with SNB-78 and 1.12 µM (active) in the assay with XF498.
In the case of `CC(C)(CN1CCCCC1)C(=O)/C=C/c1ccccc1`, the GI50 in the assay on DLD-1 was 13.7 µM (inactive); in the assay on DMS-114 it was 14.4 µM (inactive); in the assay on KM-20L2, 10.3 µM (inactive); in the assay on LXFL 529, 16.9 µM (inactive); in the assay with M19-MEL, 18.9 µM (inactive); with RXF 631, 21.1 µM (inactive). The GI50 in the assay on SNB-78 was 22.5 µM (inactive); in the assay with XF498 it was 14.7 µM (inactive).
For the compound `COc1ccc(-c2cc(-c3ccco3)c(C#N)c(=O)[nH]2)cc1`, the GI50 is > 100 µM (inactive) with DLD-1; 79.6 µM (inactive) in the assay with DMS-114; 15.9 µM (inactive) in the assay with HOP-18; > 100 µM (inactive) in the assay with KM-20L2; 44 µM (inactive) with LXFL 529; 87.9 µM (inactive) with M19-MEL. Also, the GI50 in the assay on RXF 631 and in the assay with SNB-78 was > 100 µM (inactive) each time.
As to `O=C(C/C(CCC(=O)N(Cc1ccccc1)Cc1ccccc1)=N/Nc1ccc([N+](=O)[O-])cc1[N+](=O)[O-])c1ccccc1`, the GI50 in the assay on DLD-1 was 49.9 µM (inactive); in the assay with DMS-114 it was > 100 µM (inactive); in the assay on HOP-18, > 100 µM (inactive); in the assay on KM-20L2 it was 33.3 µM (inactive); in the assay with LXFL 529, 25 µM (inactive); in the assay on M19-MEL, 68.4 µM (inactive). Moreover, the GI50 in the assay with SNB-78 and with XF498 was > 100 µM (inactive) throughout.
With `OCC1=CC(NC2CC(CO)C(O)C(O)C2O)C(O)C(O)C1O` (stereo not given), the GI50 in the assay with DLD-1 is > 100 µM (inactive); with DMS-114, > 100 µM (inactive); in the assay on HOP-18, > 100 µM (inactive); with M19-MEL it was > 100 µM (inactive); in the assay on XF498, 64.9 µM (inactive).
As for `CC(=O)OCC1OC(n2cnc3c(I)nc(I)nc32)C(OC(C)=O)C1OC(C)=O` (stereo not given), the GI50 is 10.8 µM (inactive) in the assay on DLD-1; 4.21 µM (inactive) with DMS-114; 17.6 µM (inactive) with KM-20L2; 13.4 µM (inactive) with LXFL 529; 3.66 µM (inactive) in the assay with M19-MEL; 15.5 µM (inactive) with RXF 631. Besides, the GI50 in the assay with XF498 was 20.9 µM (inactive).
On to `Cc1c2ccncc2c(C)c2c1[nH]c1ccc(O)c(OCC(F)(F)F)c12`, for which the GI50 is 8 µM (inactive) with DLD-1; 2.44 µM (inactive) with DMS-114; 12.2 µM (inactive) with KM-20L2; 5.12 µM (inactive) in the assay on LXFL 529; 4.47 µM (inactive) with SNB-78; 12.6 µM (inactive) in the assay on XF498.
Regarding `Cn1c(=O)nc2n(-c3ccc(O)cc3)c3ccccc3nc-2c1=O`, the GI50 with DLD-1 was > 100 µM (inactive); in the assay on DMS-114 it was 22.5 µM (inactive); in the assay on HOP-18, > 100 µM (inactive); in the assay on KM-20L2, 64.3 µM (inactive); in the assay on LXFL 529 it was > 100 µM (inactive); in the assay on M19-MEL it was 20 µM (inactive). Besides, the GI50 in the assay on RXF 631 was 63.5 µM (inactive); with SNB-78 it was > 100 µM (inactive); with XF498 it was 60 µM (inactive).
Take `O=C(C#Cc1cnc(O)nc1O)c1ccccc1Cl`: the GI50 in the assay on DLD-1 is 15.5 µM (inactive); with DMS-114, 21.9 µM (inactive); with HOP-18 it was 20 µM (inactive); in the assay with SNB-78 it was 24.8 µM (inactive).

As usually defined, the GI50 is the concentration at which growth is held to half of that of the control.
